Measurements published in ChEMBL document CHEMBL4823315 (Bioorg Med Chem Lett, 2021).

How the values were obtained:
[1] = target: Serine/threonine-protein kinase AKT (Homo sapiens, UniProt P31751+Q9Y243+P31749); assay: Inhibition of Akt (unknown origin); format: protein assay
[2] = target: Voltage-gated inwardly rectifying potassium channel KCNH2 (Homo sapiens, UniProt Q12809); assay: Inhibition of human ERG by patch clamp assay
[3] = Inhibition of p70S6K (unknown origin); parameters: species or system Homo sapiens
[4] = Inhibition of Akt/p70S6K in human MDA-MB-436 cells assessed as inhibition of S6 phosphorylation; format: cell-based
hERG (KCNH2) = hERG (KCNH2) (Homo sapiens, UniProt Q12809); assay: Inhibition of human ERG at 10 uM by patch clamp assay
Sequence of hERG (KCNH2) (Q12809 whole entry): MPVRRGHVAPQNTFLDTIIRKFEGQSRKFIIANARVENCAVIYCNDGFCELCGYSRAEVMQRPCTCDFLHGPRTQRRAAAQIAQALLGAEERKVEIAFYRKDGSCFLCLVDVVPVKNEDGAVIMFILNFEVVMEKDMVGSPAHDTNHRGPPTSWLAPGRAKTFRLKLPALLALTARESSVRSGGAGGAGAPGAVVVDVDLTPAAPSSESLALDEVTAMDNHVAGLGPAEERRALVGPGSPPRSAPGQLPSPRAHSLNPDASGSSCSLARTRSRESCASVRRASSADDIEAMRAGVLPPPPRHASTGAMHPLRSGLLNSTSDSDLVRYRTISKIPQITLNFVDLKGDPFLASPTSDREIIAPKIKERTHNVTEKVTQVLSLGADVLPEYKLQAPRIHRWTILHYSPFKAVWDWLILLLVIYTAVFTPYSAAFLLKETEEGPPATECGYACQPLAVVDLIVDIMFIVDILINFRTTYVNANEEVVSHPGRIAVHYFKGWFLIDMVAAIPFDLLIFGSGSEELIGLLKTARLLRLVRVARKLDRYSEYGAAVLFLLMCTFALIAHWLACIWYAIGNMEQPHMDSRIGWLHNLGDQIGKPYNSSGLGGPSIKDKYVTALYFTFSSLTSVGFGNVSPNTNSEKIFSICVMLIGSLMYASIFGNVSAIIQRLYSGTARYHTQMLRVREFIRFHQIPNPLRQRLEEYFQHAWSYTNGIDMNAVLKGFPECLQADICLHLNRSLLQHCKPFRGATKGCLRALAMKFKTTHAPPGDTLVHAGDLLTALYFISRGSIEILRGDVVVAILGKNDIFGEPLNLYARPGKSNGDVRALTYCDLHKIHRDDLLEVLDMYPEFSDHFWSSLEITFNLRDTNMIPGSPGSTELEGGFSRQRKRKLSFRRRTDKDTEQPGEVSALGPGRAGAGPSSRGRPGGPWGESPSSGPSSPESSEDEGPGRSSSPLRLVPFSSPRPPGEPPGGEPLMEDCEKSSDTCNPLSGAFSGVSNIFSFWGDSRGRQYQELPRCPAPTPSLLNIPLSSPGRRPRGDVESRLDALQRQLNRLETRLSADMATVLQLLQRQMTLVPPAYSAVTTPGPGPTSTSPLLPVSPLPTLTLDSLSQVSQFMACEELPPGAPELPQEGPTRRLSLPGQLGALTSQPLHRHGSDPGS

Sequence of Voltage-gated inwardly rectifying potassium channel KCNH2 (Q12809 whole entry): as above

IC50 [1] | IC50 [3] | IC50 [4] | Structure (SMILES) | IC50 [2] | inhibition at 10 µM (hERG (KCNH2))
4.2 nM | 2.6 nM | – | C=Cc1c(N)ncnc1N1CCC(c2nc(-c3ccc(F)c(C(F)(F)F)c3)cn2CCN2CCC2)CC1 | 930 nM | –
9.1 nM | 3.5 nM | – | C=Cc1c(N)ncnc1N1CCC(c2nc(-c3ccc(F)c(C(F)(F)F)c3)cn2CCN(C)C)CC1 | 1100 nM | –
350 nM | 18 nM | – | Nc1ncnc(N2CCC(c3nc(-c4ccc(F)c(C(F)(F)F)c4)cn3CCN3CCCCC3)CC2)c1-c1ccc(F)cc1 | – | –
230 nM | 7.3 nM | – | CN(C)CCn1cc(-c2ccc(F)c(C(F)(F)F)c2)nc1C1CCN(c2ncnc(N)c2-c2ccc(F)cc2)CC1 | 1200 nM | –
> 1000 nM | 14 nM | 2900 nM | NCC(c1ccc(F)c(C(F)(F)F)c1)N1CCN(c2ncnc(N)c2-c2ccc(F)cc2)CC1 (configuration not stated) | – | –
> 1000 nM | 3 nM | 800 nM | Cn1cc(-c2ccc(F)c(C(F)(F)F)c2)nc1C1CCN(c2ncnc(N)c2-c2ccccc2F)CC1 | – | –
84 nM | 3.5 nM | 89000 nM | CN(C)CCn1cc(-c2ccc(F)c(C(F)(F)F)c2)nc1C1CCN(c2ncnc(N)c2C(N)=O)CC1 | 4000 nM | –
260 nM | 1.3 nM | 300 nM | Cn1cc(-c2ccc(F)c(C(F)(F)F)c2)nc1C1CCN(c2ncnc(N)c2C#N)CC1 | – | –
> 1000 nM | 4.2 nM | 1500 nM | Nc1ncnc(N2CCN(C(CN3CCC3)c3ccc(C(F)(F)F)cc3)CC2)c1-c1ccc(F)cc1 (configuration not stated) | – | –
2.2 nM | 0.8 nM | 52000 nM | N#Cc1c(N)ncnc1N1CCC(c2nc(-c3ccc(F)c(C(F)(F)F)c3)cn2CCN2CCC2)CC1 | – | –
1600 nM | 3 nM | 2300 nM | Cn1cc(-c2ccc(F)c(C(F)(F)F)c2)nc1C1CCN(c2ncnc(N)c2C(N)=O)CC1 | 1900 nM | –
518 nM | 2.2 nM | 1200 nM | COc1c(N)ncnc1N1CCC(c2nc(-c3ccc(F)c(C(F)(F)F)c3)cn2C)CC1 | – | –
930 nM | 2 nM | 400 nM | Cn1cc(-c2ccc(F)c(C(F)(F)F)c2)nc1C1CCN(c2ncnc(N)c2-c2ccncc2)CC1 | – | –
350 nM | 2.2 nM | 400 nM | NCC(c1ccc(C(F)(F)F)cc1)N1CCN(c2ncnc(N)c2-c2ccc(F)cc2)CC1 (configuration not stated) | – | –
7.3 nM | 6 nM | – | Nc1ncnc(N2CCC(c3nc(-c4ccc(F)c(C(F)(F)F)c4)cn3CCN3CCC3)CC2)c1C1CCC1 | 1300 nM | –
– | – | – | Cn1cc(-c2ccc(F)c(C(F)(F)F)c2)nc1C1CCN(c2ncnc3[nH]ncc23)CC1 [LY-2584702] | – | 29%
